Measured values published in the supplement of paper PMC4932681.

What was measured:
BT-474 Tam1 [1] = assay: drug sensitivity score (DSS) (DSS (dimensionless)); higher = more sensitive; extreme values may be limits of the assay; conditions: 4-OH-tamoxifen in medium 1 µM; 72 h
Procedure, shortened: (§1)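 Breast cancer cell lines and their resistant derivatives were seeded into 384-well plates holding FO2Baq library drugs at five concentrations spanning a 10 000-fold range. Resistant lines were in medium with 1 μM of the selecting drug. Cells were incubated 72 h at 37 °C, and CellTiter-Glo viability was read on a PHERAstar and normalised to vehicle-only and positive controls. Drug sensitivity score, relative IC50 (curve midpoint) and top-dose inhibition came from logistic dose–response fits (Breeze pipeline).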

BT-474 Tam2 [2] = assay: as above; conditions: 4-OH-tamoxifen in medium 1 µM; 72 h
Procedure, shortened: as §1

BT-474 [3] = assay: as above; conditions: 72 h
Procedure, shortened: as §1

MCF-7 Tam1 [4] = assay: as above; conditions: 4-OH-tamoxifen in medium 1 µM; 72 h
Procedure, shortened: as §1

MCF-7 [5] = assay: as above; conditions: 72 h
Procedure, shortened: as §1

T-47D Tam1 [6] = assay: as above; conditions: 4-OH-tamoxifen in medium 1 µM; 72 h
Procedure, shortened: as §1

T-47D Tam2 [7] = assay: as above; conditions: 4-OH-tamoxifen in medium 1 µM; 72 h
Procedure, shortened: as §1

T-47D [8] = assay: as above; conditions: 72 h
Procedure, shortened: as §1

ZR-75-1 Tam1 [9] = assay: as above; conditions: 4-OH-tamoxifen in medium 1 µM; 72 h
Procedure, shortened: as §1

ZR-75-1 Tam2 [10] = assay: as above; conditions: 4-OH-tamoxifen in medium 1 µM; 72 h
Procedure, shortened: as §1

ZR-75-1 [11] = assay: as above; conditions: 72 h
Procedure, shortened: as §1

BT-474 Tam1 [12] = assay: relative IC50 (midpoint of fitted logistic curve, plateau may be below 50% inhibition; CellTiter-Glo viability); higher = less potent; conditions: 4-OH-tamoxifen in medium 1 µM; 72 h
Procedure, shortened: as §1

BT-474 [13] = assay: as above; conditions: 72 h
Procedure, shortened: as §1

MCF-7 Tam1 [14] = assay: as above; conditions: 4-OH-tamoxifen in medium 1 µM; 72 h
Procedure, shortened: as §1

MCF-7 [15] = assay: as above; conditions: 72 h
Procedure, shortened: as §1

T-47D Tam1 [16] = assay: as above; conditions: 4-OH-tamoxifen in medium 1 µM; 72 h
Procedure, shortened: as §1

T-47D Tam2 [17] = assay: as above; conditions: 4-OH-tamoxifen in medium 1 µM; 72 h
Procedure, shortened: as §1

T-47D [18] = assay: as above; conditions: 72 h
Procedure, shortened: as §1

ZR-75-1 Tam1 [19] = assay: as above; conditions: 4-OH-tamoxifen in medium 1 µM; 72 h
Procedure, shortened: as §1

ZR-75-1 Tam2 [20] = assay: as above; conditions: 4-OH-tamoxifen in medium 1 µM; 72 h
Procedure, shortened: as §1

ZR-75-1 [21] = assay: as above; conditions: 72 h
Procedure, shortened: as §1

BT-474 Tam2 [22] = assay: as above; conditions: 4-OH-tamoxifen in medium 1 µM; 72 h
Procedure, shortened: as §1

Row | Structure (SMILES) | drug sensitivity score (BT-474 Tam1 [1]) | drug sensitivity score (BT-474 Tam2 [2]) | drug sensitivity score (BT-474 [3]; 4-OH-tamoxifen in medium 0 µM) | drug sensitivity score (BT-474 [3]; 4-OH-tamoxifen in medium 1 µM) | drug sensitivity score (MCF-7 Tam1 [4]) | drug sensitivity score (MCF-7 [5]; 4-OH-tamoxifen in medium 0 µM) | drug sensitivity score (MCF-7 [5]; 4-OH-tamoxifen in medium 1 µM) | drug sensitivity score (T-47D Tam1 [6]) | drug sensitivity score (T-47D Tam2 [7]) | drug sensitivity score (T-47D [8]; 4-OH-tamoxifen in medium 0 µM) | drug sensitivity score (T-47D [8]; 4-OH-tamoxifen in medium 1 µM) | drug sensitivity score (ZR-75-1 Tam1 [9]) | drug sensitivity score (ZR-75-1 Tam2 [10]) | drug sensitivity score (ZR-75-1 [11]; 4-OH-tamoxifen in medium 0 µM) | drug sensitivity score (ZR-75-1 [11]; 4-OH-tamoxifen in medium 1 µM) | relative IC50 (BT-474 Tam1 [12]) [µM] | relative IC50 (BT-474 [13]; 4-OH-tamoxifen in medium 0 µM) [µM] | relative IC50 (BT-474 [13]; 4-OH-tamoxifen in medium 1 µM) [µM] | relative IC50 (MCF-7 Tam1 [14]) [µM] | relative IC50 (MCF-7 [15]; 4-OH-tamoxifen in medium 0 µM) [µM] | relative IC50 (MCF-7 [15]; 4-OH-tamoxifen in medium 1 µM) [µM] | relative IC50 (T-47D Tam1 [16]) [µM] | relative IC50 (T-47D Tam2 [17]) [µM] | relative IC50 (T-47D [18]; 4-OH-tamoxifen in medium 0 µM) [µM] | relative IC50 (T-47D [18]; 4-OH-tamoxifen in medium 1 µM) [µM] | relative IC50 (ZR-75-1 Tam1 [19]) [µM] | relative IC50 (ZR-75-1 Tam2 [20]) [µM] | relative IC50 (ZR-75-1 [21]; 4-OH-tamoxifen in medium 0 µM) [µM] | relative IC50 (ZR-75-1 [21]; 4-OH-tamoxifen in medium 1 µM) [µM] | relative IC50 (BT-474 Tam2 [22]) [µM]
1 | CC[C@@H]1C(=O)OC[C@@H]1Cc1cncn1C [Pilocarpine] | 0 | 0 | 0 | 0 | 0 | 0 | 0 | 0 | 0 | 0 | 0 | 0 | 0 | 0 | 0 | > 40 | > 40 | > 40 | > 40 | > 40 | > 40 | > 40 | > 40 | > 40 | > 40 | > 40 | > 40 | > 40 | > 40 | 
2 | CNC(=O)c1ccc(N2C(=S)N(c3ccc(C#N)c(C(F)(F)F)c3)C(=O)C23CCC3)cc1F [RD162] | 0.0464 | 0.498 | 0 | 0 | 0 | 0 | 1.42 | 0 | 0 | 0 | 0.215 | 0 | 0 | 0 | 0 |  | > 10 | > 10 | > 10 | > 10 |  | > 10 | > 10 | > 10 |  | > 10 | > 10 | > 10 | > 10 | 
3 | S=P(N1CC1)(N1CC1)N1CC1 [Thio-TEPA] | 0 | 0 | 0 | 0 | 0 | 0 | 0 | 0 | 0 | 0 | 0 | 0.276 | 0 | 0 | 0 | > 100 | > 100 | > 100 | > 100 | > 100 | > 100 | > 100 | > 100 | > 100 | > 100 |  | > 100 | > 100 | > 100 | > 100
4 | Clc1ccc(Nc2nnc(Cc3ccncc3)c3ccccc23)cc1 [Vatalanib] | 0 | 0.0042 | 0 | 0 | 0 | 0 | 0 | 0 | 0 | 0 | 0 | 0 | 0 | 0 | 0 |  | > 10 | > 10 | > 10 | > 10 | > 10 | > 10 | > 10 | > 10 | > 10 | > 10 | > 10 | > 10 | > 10 | 
